The values below come from PubChem BioAssay (NCI).

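Cells were grown in 96-well plates and exposed to each compound for 48 hours at five concentrations; endpoints were interpolated linearly between bracketing concentrations, or set to the highest concentration if not reached. GI50 marks 50% less growth. TGI denotes the concentration required for complete inhibition of growth.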

Test systems include BT-549 breast; CCRF-CEM leukemia; COLO 205 colon; HCC-2998 colon; HCT-116 colon; K-562 leukemia; LOX IMVI melanoma; MCF7 breast; NCI/ADR-RES ovarian; U251 CNS.
Common to all, as to assay: growth of human tumour cells (NCI), 48 h

For the compound `CCN(CC)c1ccc(C(=C2C=CC(=[N+](CC)Cc3cccc(S(=O)(=O)O)c3)C=C2)c2ccc(N(CC)Cc3cccc(S(=O)(=O)O)c3)cc2)cc1`, the GI50 in the assay with BT-549 breast is 5.45 µM; in the assay on CCRF-CEM leukemia, 6.59 µM; in the assay with COLO 205 colon it was 1.87 µM; with HCC-2998 colon, 5.78 µM; in the assay with HCT-116 colon, 3.18 µM; in the assay with K-562 leukemia, 3.85 µM. Besides, the GI50 with LOX IMVI melanoma is 4.84 µM; in the assay with MCF7 breast it was 3.66 µM; in the assay with NCI/ADR-RES ovarian, above 100 µM; with U251 CNS it was 3.58 µM. In addition, the TGI in the assay with BT-549 breast is above 91.7 µM; in the assay on CCRF-CEM leukemia it was 98.5 µM; in the assay on COLO 205 colon, 3.83 µM; with HCC-2998 colon, above 100 µM; in the assay with HCT-116 colon it was 19.7 µM; in the assay on K-562 leukemia it was 97.5 µM. Also, the TGI with LOX IMVI melanoma, in the assay with MCF7 breast, with NCI/ADR-RES ovarian and in the assay with U251 CNS was above 100 µM in each case.
Turning to `COc1c(CCC[P+](c2ccccc2)(c2ccccc2)c2ccccc2)cc2c(c1OC)OCO2`, the GI50 in the assay with BT-549 breast was 1.24 µM; in the assay on CCRF-CEM leukemia, 1.7 µM; with COLO 205 colon, 1.21 µM; in the assay on HCC-2998 colon, 2.22 µM; in the assay with HCT-116 colon it was 1.2 µM; in the assay with K-562 leukemia, 0.529 µM. Besides, the GI50 was 2.4 µM in the assay on LOX IMVI melanoma, 1.12 µM in the assay on MCF7 breast, above 100 µM in the assay with NCI/ADR-RES ovarian and 1.77 µM with U251 CNS. The TGI in the assay with BT-549 breast is 15 µM; in the assay on CCRF-CEM leukemia it was above 100 µM; with COLO 205 colon, 5.71 µM; in the assay with HCC-2998 colon, 14.6 µM; in the assay with HCT-116 colon it was above 100 µM; with K-562 leukemia it was above 100 µM. For the same compound, the TGI in the assay with LOX IMVI melanoma is 10.4 µM; with MCF7 breast, 10.7 µM; with NCI/ADR-RES ovarian it was above 100 µM; with U251 CNS, 19.7 µM.
For `COC(=O)[C@]12CC[C@@H](C)[C@H](C)[C@@H]1C1=CC[C@@H]3[C@@]4(C)C[C@@H](OC(C)=O)[C@H](O)[C@@](C)(COC(C)=O)[C@@H]4[C@H](O)C[C@@]3(C)[C@]1(C)CC2`, the GI50 was 2.18 µM in the assay with BT-549 breast; 2.54 µM in the assay on CCRF-CEM leukemia; 1.63 µM in the assay with COLO 205 colon; 2.14 µM in the assay with HCC-2998 colon; 1.95 µM in the assay with HCT-116 colon; 2.33 µM in the assay with K-562 leukemia. Also, the GI50 was 1.64 µM in the assay with LOX IMVI melanoma, 2.01 µM in the assay on MCF7 breast, 2.68 µM in the assay on NCI/ADR-RES ovarian and 1.87 µM in the assay on U251 CNS. For the same compound, the TGI turned out to be 5.71 µM with BT-549 breast; 6.34 µM in the assay with CCRF-CEM leukemia; 3.2 µM in the assay on COLO 205 colon; 4.57 µM in the assay on HCC-2998 colon; 4.11 µM with HCT-116 colon; 6.06 µM with K-562 leukemia. The TGI in the assay with LOX IMVI melanoma was found to be 3.1 µM; with MCF7 breast it was 5.71 µM; with NCI/ADR-RES ovarian it was 7.54 µM; in the assay on U251 CNS it was 4.01 µM.
With `C=CCc1c2c(c(OC)c3ccoc13)C(=O)/C(=C/c1ccccc1OC)O2`, the GI50 is 4.44 µM with BT-549 breast; 3.44 µM in the assay on CCRF-CEM leukemia; 7.64 µM with COLO 205 colon; 2.85 µM in the assay with HCC-2998 colon; 3.29 µM in the assay on HCT-116 colon; 3.51 µM in the assay with K-562 leukemia. The GI50 in the assay with LOX IMVI melanoma was 3.13 µM; with MCF7 breast, 2.92 µM; in the assay with NCI/ADR-RES ovarian, 2.82 µM; in the assay on U251 CNS, 3.53 µM. Moreover, the TGI with BT-549 breast is above 100 µM; in the assay with CCRF-CEM leukemia it was above 100 µM; in the assay with COLO 205 colon, 69.5 µM; in the assay on HCC-2998 colon it was 7.85 µM; in the assay on HCT-116 colon, above 100 µM; in the assay on K-562 leukemia it was above 100 µM. In addition, the TGI is 27.1 µM in the assay with LOX IMVI melanoma, above 100 µM in the assay on MCF7 breast, 10.8 µM in the assay on NCI/ADR-RES ovarian and above 100 µM with U251 CNS.
`COC(=O)/C=C/C=C(c1ccccc1)c1ccccc1`: the GI50 is 3.4 µM with BT-549 breast; 6.48 µM with CCRF-CEM leukemia; 3.57 µM with COLO 205 colon; 28.8 µM with HCC-2998 colon; 3.68 µM in the assay on HCT-116 colon; 4 µM in the assay with K-562 leukemia. Further, the GI50 was 5.87 µM with LOX IMVI melanoma, 4.08 µM in the assay with MCF7 breast, 3.12 µM in the assay with NCI/ADR-RES ovarian and 3.6 µM with U251 CNS. Further, the TGI in the assay with BT-549 breast was 19.6 µM; in the assay with CCRF-CEM leukemia it was above 100 µM; in the assay on COLO 205 colon, 13.9 µM; in the assay on HCC-2998 colon it was above 100 µM; with HCT-116 colon, 18.9 µM; in the assay with K-562 leukemia, above 100 µM. Also, the TGI is 21.7 µM with LOX IMVI melanoma, above 100 µM in the assay on MCF7 breast, 17 µM with NCI/ADR-RES ovarian and 29.3 µM in the assay with U251 CNS.
In the case of `CC1SC(c2c(Cl)cccc2Cl)N(NC(=O)c2[nH]c3ccc(F)cc3c2-c2ccccc2)C1=O` (stereo not given), the GI50 with BT-549 breast was 5.04 µM; with CCRF-CEM leukemia it was 4.79 µM; in the assay with COLO 205 colon, 2.69 µM; with HCC-2998 colon, 25 µM; in the assay with HCT-116 colon, 1.71 µM; in the assay on K-562 leukemia it was 21.9 µM. Also, the GI50 in the assay on LOX IMVI melanoma was 1.71 µM; in the assay on MCF7 breast it was 3.18 µM; in the assay with NCI/ADR-RES ovarian, 2.05 µM; in the assay with U251 CNS, 1.78 µM. Besides, the TGI in the assay with BT-549 breast is 28.5 µM; in the assay on CCRF-CEM leukemia it was 42.5 µM; in the assay with COLO 205 colon it was 7.48 µM; in the assay on HCC-2998 colon it was above 100 µM; in the assay on HCT-116 colon, 3.08 µM; in the assay on K-562 leukemia it was above 100 µM. The TGI was 3.35 µM in the assay with LOX IMVI melanoma, 11.5 µM with MCF7 breast, 4.8 µM in the assay with NCI/ADR-RES ovarian and 3.51 µM in the assay on U251 CNS.
`COc1cccc(/C=C/C(=O)c2cccc(Nc3nc(Nc4ccccc4)nc(Nc4ccccc4)n3)c2)c1`: the GI50 with BT-549 breast is 21.7 µM; in the assay on CCRF-CEM leukemia it was 5.26 µM; in the assay on COLO 205 colon, 10.5 µM; in the assay on HCC-2998 colon, 7.35 µM; with HCT-116 colon it was 1.42 µM; in the assay on K-562 leukemia, 3.96 µM. Also, the GI50 with LOX IMVI melanoma is 7.04 µM; in the assay with MCF7 breast, 1.37 µM; in the assay with NCI/ADR-RES ovarian, 27.3 µM; in the assay with U251 CNS, 9.5 µM. Moreover, the TGI is above 72.1 µM with BT-549 breast; 45.5 µM in the assay on CCRF-CEM leukemia; 42.3 µM in the assay on COLO 205 colon; 26.2 µM in the assay on HCC-2998 colon; 2.93 µM in the assay on HCT-116 colon; 45.8 µM with K-562 leukemia. Moreover, the TGI is 21.3 µM in the assay with LOX IMVI melanoma, 6.91 µM in the assay with MCF7 breast, above 100 µM with NCI/ADR-RES ovarian and above 73.8 µM with U251 CNS.
